Assay results reported in PubChem BioAssay AID248 (DTP/NCI, 2004).
Where “and” joins values, the source holds several entries; their conditions need not be identical. Identical values can stand only once. Inconclusive results and toxic doses are left out. Rule as the data show it: active = T/C of 150% or more; inactive = T/C below 125%.

System: L1210 leukemia ip in BDF1 mice, survival T/C
Assay: NCI In Vivo Anticancer Drug Screen. Data for tumor model L1210 Leukemia (intraperitoneal) in B6D2F1 (BDF1) mice
Settings: endpoint: mean survival time, higher = longer survival
Procedure, shortened: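 Tumor cells were implanted, animals were treated, and survival was followed. The result divides the treated measurement by the vehicle-control measurement.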

[1] = dose: 200.0 mg/kg/injection, schedule: Q01DX001 (ip), vehicle: carboxymethylcellulose (CMC)
[2] = dose: 100.0 mg/kg/injection, schedule: Q01DX001 (ip), vehicle: carboxymethylcellulose (CMC)
[3] = dose: 100.0 mg/kg/injection, schedule: Q01DX009 (ip), vehicle: Klucel (hydroxypropylcellulose) (HPC)
[4] = dose: 100.0 mg/kg/injection, schedule: Q01DX009 (ip), vehicle: saline with Tween-80
[5] = dose: 200.0 mg/kg/injection, schedule: Q01DX009 (ip), vehicle: Klucel (hydroxypropylcellulose) (HPC)
[6] = dose: 200.0 mg/kg/injection, schedule: Q01DX009 (ip), vehicle: saline with Tween-80
[7] = dose: 100.0 mg/kg/injection, schedule: Q04DX002 (ip), vehicle: Klucel (hydroxypropylcellulose) (HPC)
[8] = dose: 200.0 mg/kg/injection, schedule: Q04DX002 (ip), vehicle: Klucel (hydroxypropylcellulose) (HPC)
[9] = dose: 400.0 mg/kg/injection, schedule: Q04DX002 (ip), vehicle: Klucel (hydroxypropylcellulose) (HPC)
[10] = dose: 400.0 mg/kg/injection, schedule: Q01DX009 (ip), vehicle: Klucel (hydroxypropylcellulose) (HPC)
[11] = dose: 100.0 mg/kg/injection, schedule: Q04DX003 (ip), vehicle: Klucel (hydroxypropylcellulose) (HPC)
[12] = dose: 100.0 mg/kg/injection, schedule: Q04DX003 (ip), vehicle: saline with Tween-80
[13] = dose: 200.0 mg/kg/injection, schedule: Q04DX003 (ip), vehicle: saline with Tween-80
[14] = dose: 400.0 mg/kg/injection, schedule: Q04DX003 (ip), vehicle: saline with Tween-80
[15] = dose: 200.0 mg/kg/injection, schedule: Q04DX003 (ip), vehicle: Klucel (hydroxypropylcellulose) (HPC)
[16] = dose: 400.0 mg/kg/injection, schedule: Q04DX003 (ip), vehicle: Klucel (hydroxypropylcellulose) (HPC)

Measured: T/C

CCCCN(CCCC)c1ccc(/C=C/c2ccnc3ccccc23)cc1
inactive: dose: 100.0 mg/kg/injection, schedule: Q01DX009 (ip), vehicle: carboxymethylcellulose (CMC) 101 % of control and 103 % of control | dose: 100.0 mg/kg/injection, schedule: Q04DX002 (ip), vehicle: carboxymethylcellulose (CMC) 102 % of control | dose: 100.0 mg/kg/injection, schedule: Q04DX003 (ip), vehicle: carboxymethylcellulose (CMC) 97 % of control | [1] 92 % of control | dose: 200.0 mg/kg/injection, schedule: Q01DX009 (ip), vehicle: carboxymethylcellulose (CMC) 101 % of control and 104 % of control | dose: 200.0 mg/kg/injection, schedule: Q04DX002 (ip), vehicle: carboxymethylcellulose (CMC) 108 % of control | dose: 200.0 mg/kg/injection, schedule: Q04DX003 (ip), vehicle: carboxymethylcellulose (CMC) 100 % of control | dose: 400.0 mg/kg/injection, schedule: Q01DX009 (ip), vehicle: carboxymethylcellulose (CMC) 101 % of control and 103 % of control | dose: 400.0 mg/kg/injection, schedule: Q04DX002 (ip), vehicle: carboxymethylcellulose (CMC) 102 % of control | dose: 400.0 mg/kg/injection, schedule: Q04DX003 (ip), vehicle: carboxymethylcellulose (CMC) 97 % of control | dose: 800.0 mg/kg/injection, schedule: Q01DX001 (ip), vehicle: carboxymethylcellulose (CMC) 92 % of control | dose: 1600.0 mg/kg/injection, schedule: Q01DX001 (ip), vehicle: carboxymethylcellulose (CMC) 88 % of control

Cc1cc(=O)n(C)c2ccccc12
inactive: dose: 50.0 mg/kg/injection, schedule: Q01DX009 (ip), vehicle: saline with Tween-80 97 % of control | [2] 93 % of control | [3] 104 % of control | [4] 101 % of control | [1] 93 % of control | [5] 93 % of control | [6] 94 % of control

CCOC(=O)C(C)(C)C(O)C(C)C (stereo not given)
inactive: [4] 106 % of control | [6] 103 % of control | dose: 400.0 mg/kg/injection, schedule: Q01DX009 (ip), vehicle: saline with Tween-80 93 % of control

Cc1cc(Br)ccc1NC(=O)/C=C/C(=O)O
inactive: [7] 114 % of control | [8] 95 % of control | [9] 100 % of control

CCc1ccccc1NC(=O)Nc1ccc(C(=O)O)c(O)c1
inactive: [3] 95 % of control | [7] 98 % of control | [5] 101 % of control | [8] 102 % of control | [10] 108 % of control | [9] 102 % of control

CCOC(=O)Nc1cc2c(c(=O)[nH]1)N=C(CN(C)c1ccc(C(=O)OC)cc1)CN2
inactive: dose: 100.0 mg/kg/injection, schedule: Q01DX001 (ip), vehicle: alkali diluted with saline 104 % of control | dose: 200.0 mg/kg/injection, schedule: Q01DX001 (ip), vehicle: alkali diluted with saline 96 % of control | dose: 400.0 mg/kg/injection, schedule: Q01DX001 (ip), vehicle: alkali diluted with saline 102 % of control

Cc1ccc(NC(N)=S)cc1
inactive: dose: 25.0 mg/kg/injection, schedule: Q04DX003 (ip), vehicle: Klucel (hydroxypropylcellulose) (HPC) 107 % of control | dose: 50.0 mg/kg/injection, schedule: Q04DX003 (ip), vehicle: Klucel (hydroxypropylcellulose) (HPC) 98 % of control | [11] 101 % of control

CCC(=O)Nc1cccc(OC(=O)NC(C)(C)C)c1
inactive: [12] 90 % of control | [13] 90 % of control | [14] 89 % of control

CCN(c1ccc(Br)cc1)c1ccc(Br)cc1
inactive: [2] 100 % of control | [1] 94 % of control | dose: 400.0 mg/kg/injection, schedule: Q01DX001 (ip), vehicle: carboxymethylcellulose (CMC) 105 % of control

CC(=O)Nc1cc(Cl)ccc1C(=O)O
inactive: dose: 100.0 mg/kg/injection, schedule: Q01DX001 (ip), vehicle: other 109 % of control | dose: 100.0 mg/kg/injection, schedule: Q04DX003 (ip), vehicle: other 96 % of control | dose: 200.0 mg/kg/injection, schedule: Q01DX001 (ip), vehicle: other 98 % of control | dose: 200.0 mg/kg/injection, schedule: Q04DX003 (ip), vehicle: other 90 % of control | dose: 400.0 mg/kg/injection, schedule: Q01DX001 (ip), vehicle: other 101 % of control | dose: 400.0 mg/kg/injection, schedule: Q04DX003 (ip), vehicle: other 96 % of control

COC(=O)c1cccc(C)c1NC(=O)NCCCl
inactive: [11] 96 % of control | [15] 96 % of control | [16] 94 % of control

Cc1ccc(NC(=O)C2C3C=CC(C3)C2C(=O)Nc2ccc(C)cc2)cc1 (stereo not given)
inactive: [12] 96 % of control | [13] 96 % of control | [14] 91 % of control

C[CH2][Sn]([CH2]C)([CH2]C)[NH]S(=O)(=O)c1ccc(C)cc1
inactive: dose: 3.12 mg/kg/injection, schedule: Q01DX009 (ip), vehicle: saline with Tween-80 92 % of control | dose: 12.5 mg/kg/injection, schedule: Q04DX003 (ip), vehicle: saline 106 % of control

CC1CC2C(CC1=O)C(C)(C)CCC2(C)C (stereo not given)
inactive: [3] 92 % of control | [5] 94 % of control | [15] 107 % of control | [10] 90 % of control | [16] 91 % of control

NC/C=N/N=C(N)N
inactive: dose: 15.0 mg/kg/injection, schedule: Q01DX Z (ip), vehicle: saline 97 % of control | dose: 30.0 mg/kg/injection, schedule: Q01DX Z (ip), vehicle: saline 96 % of control | dose: 60.0 mg/kg/injection, schedule: Q01DX Z (ip), vehicle: saline 94 % of control | dose: 120.0 mg/kg/injection, schedule: Q01DX Z (ip), vehicle: saline 87 % of control | dose: 120.0 mg/kg/injection, schedule: Q01DX Z (oral), vehicle: saline 101 % of control | dose: 240.0 mg/kg/injection, schedule: Q01DX Z (oral), vehicle: saline 101 % of control | dose: 480.0 mg/kg/injection, schedule: Q01DX Z (oral), vehicle: saline 103 % of control | dose: 960.0 mg/kg/injection, schedule: Q01DX Z (oral), vehicle: saline 98 % of control

CC(C)([CH2][Sn]([Cl])([Cl])[CH2]C(C)(C)c1ccccc1)c1ccccc1
inactive: dose: 0.1 mg/kg/injection, schedule: Q04DX002 (ip), vehicle: saline with Tween-80 95 % of control | dose: 0.2 mg/kg/injection, schedule: Q04DX002 (ip), vehicle: saline with Tween-80 95 % of control | dose: 0.4 mg/kg/injection, schedule: Q04DX002 (ip), vehicle: saline with Tween-80 95 % of control | dose: 0.8 mg/kg/injection, schedule: Q04DX002 (ip), vehicle: saline with Tween-80 92 % of control | dose: 3.13 mg/kg/injection, schedule: Q04DX002 (ip), vehicle: saline with Tween-80 98 % of control

CN(C)C(=O)CCOc1cccc2ccccc12
inactive: dose: 75.0 mg/kg/injection, schedule: Q01DX001 (ip), vehicle: saline 100 % of control

COc1c(O)cc2oc3cc(O)c(CC=C(C)C)c(O)c3c(=O)c2c1CC=C(C)C
inactive: dose: 100.0 mg/kg/injection, schedule: Q01DX001 (ip), vehicle: Klucel (hydroxypropylcellulose) (HPC) 97 % of control | [3] 96 % of control | [11] 105 % of control | dose: 200.0 mg/kg/injection, schedule: Q01DX001 (ip), vehicle: Klucel (hydroxypropylcellulose) (HPC) 97 % of control | [15] 105 % of control | dose: 400.0 mg/kg/injection, schedule: Q01DX001 (ip), vehicle: Klucel (hydroxypropylcellulose) (HPC) 98 % of control | [16] 100 % of control

O=C1C=CC(=O)N1
inactive: dose: 0.62 mg/kg/injection, schedule: Q01DX009 (ip), vehicle: saline 90 % of control | dose: 1.25 mg/kg/injection, schedule: Q01DX009 (ip), vehicle: saline 93 % of control | dose: 1.25 mg/kg/injection, schedule: Q04DX003 (ip), vehicle: saline 92 % of control | dose: 2.5 mg/kg/injection, schedule: Q01DX009 (ip), vehicle: saline 90 % of control | dose: 2.5 mg/kg/injection, schedule: Q04DX003 (ip), vehicle: saline 96 % of control | dose: 3.74 mg/kg/injection, schedule: Q01DX009 (ip), vehicle: saline with Tween-80 96 % of control | dose: 5.0 mg/kg/injection, schedule: Q01DX001 (ip), vehicle: acetone 95 % of control
